Measurements published in US6410483B1, “Phenylsulfonylureas, processes for their preparation, and their use as herbicides and plant growth regulators” (Hoechst Schering AgrEvo GmbH, priority 1997, dated 2002).

COC(=O)NCCc1ccc(C(=O)OC)c(S(=O)(=O)NC(=O)Nc2nc(OC)cc(OC)n2)c1 [Example A5, Methyl 2-[(4,6-Dimethoxypyrimidin-2-yl)aminocarbonylaminosulfonyl]-4-[2-(methoxycarbonylamino)ethyl]benzoate]
melting point: 165 to 169 °C (dec.)
